Activity calls are given as the source filed them. The calls are words filed in the database; no cut-off is given here.
Assays:
[1] = system: Left cardiac atrium; assay: Negative […] activity in electrically-paced Cavia porcellus (guinea pig) left atrium measured immediately by isometric transducer analysis in presence of atropine; format: functional, tissue-based
[2] = system: Left cardiac atrium; assay: Negative […] activity in electrically-paced Cavia porcellus (guinea pig) left atrium measured immediately by isometric transducer analysis in presence of thioperamide; format: functional, tissue-based
[3] = system: Right cardiac atrium; assay: Negative […] activity in electrically-paced Cavia porcellus (guinea pig) right atrium measured immediately by isometric transducer analysis in presence of benzalkonium; format: functional, tissue-based
[4] = system: Right cardiac atrium; assay: Negative ionotropic activity in electrically-paced Cavia porcellus (guinea pig) right atrium measured immediately by isometric transducer analysis in presence of methoctramine; format: functional, tissue-based
[5] = system: Left cardiac atrium; assay: Negative ionotropic activity in electrically-paced Cavia porcellus (guinea pig) left atrium measured immediately by isometric transducer analysis in absence of benzalkonium/prazosin relative to arecaidine propargyl ester; format: functional
[6] = system: Left cardiac atrium; assay: Negative ionotropic activity in electrically-paced Cavia porcellus (guinea pig) left atrium measured immediately by isometric transducer analysis in presence of 4-DAMP mustard; format: functional, tissue-based
[7] = system: Left cardiac atrium; assay: Negative ionotropic activity in electrically-paced Cavia porcellus (guinea pig) left atrium measured immediately by isometric transducer analysis in presence of AM 630; format: functional, tissue-based
[8] = system: Right cardiac atrium; assay: Negative […] activity in electrically-paced Cavia porcellus (guinea pig) right atrium assessed as effect on rate measured immediately by isometric transducer analysis in absence of benzalkonium/prazosin relative to arecaidine propargyl ester; format: functional
[9] = system: Right cardiac atrium; assay: Negative […] activity in electrically-paced Cavia porcellus (guinea pig) right atrium assessed as effect on rate measured immediately by isometric transducer analysis in presence of benzalkonium/prazosin; format: functional, tissue-based
[10] = system: Right cardiac atrium; assay: Negative […] activity in electrically-paced Cavia porcellus (guinea pig) right atrium measured immediately by isometric transducer analysis in presence of AM 630; format: functional, tissue-based
[11] = system: Right cardiac atrium; assay: Negative […] activity in electrically-paced Cavia porcellus (guinea pig) right atrium measured immediately by isometric transducer analysis in presence of benextramine; format: functional, tissue-based
[12] = system: Left cardiac atrium; assay: Negative ionotropic activity in electrically-paced Cavia porcellus (guinea pig) left atrium measured immediately by isometric transducer analysis in presence of DPCPX; format: functional, tissue-based
[13] = system: Right cardiac atrium; assay: Negative […] activity in electrically-paced Cavia porcellus (guinea pig) right atrium assessed as effect on rate measured immediately by isometric transducer analysis in absence of benzalkonium/prazosin; format: functional, tissue-based
[14] = system: Right cardiac atrium; assay: Negative ionotropic activity in electrically-paced Cavia porcellus (guinea pig) right atrium measured immediately by isometric transducer analysis in presence of pimozide; format: functional, tissue-based

Which Activity [1] does the source give for `COc1ccccc1CN1CCC(C2CCN(C(=O)CCCCCCC(=O)N3CCC(C4CCN(Cc5ccccc5OC)CC4)CC3)CC2)CC1` [PIPERTRAMINE AMIDE] here?
Its Activity is “inactive”.

And the Activity [2]?
Its Activity is “Active”.

And the Activity [3]?
The Activity was “Active”.

And the Activity [4]?
Its Activity is “inactive”.

What about the Efficacy [5] of the same compound?
Its Efficacy is 58%.

What about the Activity [6] of the same compound?
The Activity was “inactive”.

And the Activity [7]?
Its Activity is “Active”.

And the Efficacy [8]?
The Efficacy was 37%.

And the EC50 [9]?
Its EC50 is 1.51 nM.

And the Activity [10]?
The Activity was “Active”.

What about the Activity [11] of the same compound?
Its Activity is “Active”.

And the Activity [12]?
The Activity was “Active”.

And the EC50 [13]?
The EC50 was 0.977 nM.

What about the Activity [14] of the same compound?
The Activity was “Active”.

— ChEMBL document CHEMBL3044753, “Polyamines May Modulate Both G Protein-Coupled Receptors and G Proteins” (Med Chem Res, 2004)
